Data published in the CheMixHub viscosity set.
“And” between values parts separate entries of the source, which are not always exact repeats. Identical values can stand only once.

Experiment: xn = mol fraction of the nth substance listed

CC(=O)N(C)C + O
Conditions	viscosity
298.15 K, 101 kPa, x1 = 0.0203	1.214 mPa·s
298.15 K, 101 kPa, x1 = 0.025	1.265 mPa·s
298.15 K, 101 kPa, x1 = 0.0502	1.653 mPa·s
298.15 K, 101 kPa, x1 = 0.065	1.871 mPa·s
298.15 K, 101 kPa, x1 = 0.0703	1.982 mPa·s
298.15 K, 101 kPa, x1 = 0.1	2.467 mPa·s
298.15 K, 101 kPa, x1 = 0.1011	2.413 mPa·s
298.15 K, 101 kPa, x1 = 0.12	2.754 mPa·s
298.15 K, 101 kPa, x1 = 0.1203	2.797 mPa·s
298.15 K, 101 kPa, x1 = 0.1495	3.161 mPa·s
298.15 K, 101 kPa, x1 = 0.1497	3.223 mPa·s
298.15 K, 101 kPa, x1 = 0.1698	3.471 mPa·s
298.15 K, 101 kPa, x1 = 0.2003	3.774 mPa·s
298.15 K, 101 kPa, x1 = 0.2004	3.728 mPa·s
298.15 K, 101 kPa, x1 = 0.22	3.908 mPa·s
298.15 K, 101 kPa, x1 = 0.2497	4.023 mPa·s
298.15 K, 101 kPa, x1 = 0.2512	3.94 mPa·s
298.15 K, 101 kPa, x1 = 0.2701	4.04 mPa·s
298.15 K, 101 kPa, x1 = 0.3	3.99 mPa·s
298.15 K, 101 kPa, x1 = 0.3002	3.941 mPa·s
298.15 K, 101 kPa, x1 = 0.32	3.917 mPa·s
298.15 K, 101 kPa, x1 = 0.3501	3.692 mPa·s and 3.761 mPa·s
298.15 K, 101 kPa, x1 = 0.4002	3.426 mPa·s
298.15 K, 101 kPa, x1 = 0.4009	3.341 mPa·s
298.15 K, 101 kPa, x1 = 0.4503	3.059 mPa·s
298.15 K, 101 kPa, x1 = 0.5003	2.69 mPa·s
298.15 K, 101 kPa, x1 = 0.5018	2.606 mPa·s
298.15 K, 101 kPa, x1 = 0.5999	2.09 mPa·s
298.15 K, 101 kPa, x1 = 0.6031	1.995 mPa·s
298.15 K, 101 kPa, x1 = 0.6505	1.777 mPa·s
298.15 K, 101 kPa, x1 = 0.7	1.646 mPa·s
298.15 K, 101 kPa, x1 = 0.7005	1.592 mPa·s
298.15 K, 101 kPa, x1 = 0.755	1.419 mPa·s
298.15 K, 101 kPa, x1 = 0.8002	1.329 mPa·s
298.15 K, 101 kPa, x1 = 0.8048	1.284 mPa·s
298.15 K, 101 kPa, x1 = 0.8499	1.212 mPa·s
298.15 K, 101 kPa, x1 = 0.8501	1.185 mPa·s
298.15 K, 101 kPa, x1 = 0.8999	1.113 mPa·s
298.15 K, 101 kPa, x1 = 0.9049	1.083 mPa·s
298.15 K, 101.33 kPa, x2 = 0.1008	1.071 mPa·s
298.15 K, 101.33 kPa, x2 = 0.2042	1.286 mPa·s
298.15 K, 101.33 kPa, x2 = 0.3008	1.582 mPa·s
298.15 K, 101.33 kPa, x2 = 0.4068	2.047 mPa·s
298.15 K, 101.33 kPa, x2 = 0.5052	2.607 mPa·s
298.15 K, 101.33 kPa, x2 = 0.6026	3.31 mPa·s
298.15 K, 101.33 kPa, x2 = 0.7051	3.873 mPa·s
298.15 K, 101.33 kPa, x2 = 0.8054	3.612 mPa·s
298.15 K, 101.33 kPa, x2 = 0.9239	2.342 mPa·s
298.16 K, 101 kPa, x2 = 0.09	1.07 mPa·s
298.16 K, 101 kPa, x2 = 0.155	1.2 mPa·s
298.16 K, 101 kPa, x2 = 0.235	1.4 mPa·s
298.16 K, 101 kPa, x2 = 0.314	1.67 mPa·s
298.16 K, 101 kPa, x2 = 0.459	2.37 mPa·s
298.16 K, 101 kPa, x2 = 0.604	3.4 mPa·s
298.16 K, 101 kPa, x2 = 0.6607	3.75 mPa·s
298.16 K, 101 kPa, x2 = 0.741	3.97 mPa·s
298.16 K, 101 kPa, x2 = 0.7645	3.94 mPa·s
298.16 K, 101 kPa, x2 = 0.8044	3.65 mPa·s
298.16 K, 101 kPa, x2 = 0.8517	3.16 mPa·s
300.2 K, 101 kPa, x2 = 0.0298	1.005 mPa·s
300.2 K, 101 kPa, x2 = 0.0519	1.037 mPa·s
300.2 K, 101 kPa, x2 = 0.0694	1.062 mPa·s
300.2 K, 101 kPa, x2 = 0.0926	1.105 mPa·s
300.2 K, 101 kPa, x2 = 0.2763	1.564 mPa·s
300.2 K, 101 kPa, x2 = 0.436	2.3 mPa·s
300.2 K, 101 kPa, x2 = 0.555	3.112 mPa·s
300.2 K, 101 kPa, x2 = 0.6259	3.615 mPa·s
300.2 K, 101 kPa, x2 = 0.6897	3.957 mPa·s
300.2 K, 101 kPa, x2 = 0.7347	4.029 mPa·s
300.2 K, 101 kPa, x2 = 0.7737	3.926 mPa·s
300.2 K, 101 kPa, x2 = 0.8015	3.741 mPa·s
300.2 K, 101 kPa, x2 = 0.8783	2.782 mPa·s
300.2 K, 101 kPa, x2 = 0.9515	1.599 mPa·s
303.15 K, 101 kPa, x1 = 0.0203	1.076 mPa·s
303.15 K, 101 kPa, x1 = 0.0502	1.443 mPa·s
303.15 K, 101 kPa, x1 = 0.0703	1.716 mPa·s
303.15 K, 101 kPa, x1 = 0.1	2.112 mPa·s
303.15 K, 101 kPa, x1 = 0.1203	2.379 mPa·s
303.15 K, 101 kPa, x1 = 0.1497	2.719 mPa·s
303.15 K, 101 kPa, x1 = 0.1698	2.915 mPa·s
303.15 K, 101 kPa, x1 = 0.2003	3.156 mPa·s
303.15 K, 101 kPa, x1 = 0.22	3.263 mPa·s
303.15 K, 101 kPa, x1 = 0.2497	3.357 mPa·s
303.15 K, 101 kPa, x1 = 0.2701	3.373 mPa·s
303.15 K, 101 kPa, x1 = 0.3	3.339 mPa·s
303.15 K, 101 kPa, x1 = 0.32	3.286 mPa·s
303.15 K, 101 kPa, x1 = 0.3501	3.169 mPa·s
303.15 K, 101 kPa, x1 = 0.4002	2.914 mPa·s
303.15 K, 101 kPa, x1 = 0.4503	2.628 mPa·s
303.15 K, 101 kPa, x1 = 0.5003	2.336 mPa·s
303.15 K, 101 kPa, x1 = 0.5999	1.852 mPa·s
303.15 K, 101 kPa, x1 = 0.7	1.484 mPa·s
303.15 K, 101 kPa, x1 = 0.8002	1.216 mPa·s
303.15 K, 101 kPa, x1 = 0.8499	1.114 mPa·s
308.15 K, 101 kPa, x1 = 0.065	1.428 mPa·s
308.15 K, 101 kPa, x1 = 0.1	1.767 mPa·s
308.15 K, 101 kPa, x1 = 0.1011	1.81 mPa·s
308.15 K, 101 kPa, x1 = 0.1495	2.307 mPa·s
308.15 K, 101 kPa, x1 = 0.2	2.629 mPa·s
308.15 K, 101 kPa, x1 = 0.2004	2.661 mPa·s
308.15 K, 101 kPa, x1 = 0.2512	2.79 mPa·s
308.15 K, 101 kPa, x1 = 0.3	2.763 mPa·s
308.15 K, 101 kPa, x1 = 0.3002	2.784 mPa·s
308.15 K, 101 kPa, x1 = 0.3501	2.667 mPa·s
308.15 K, 101 kPa, x1 = 0.4	2.479 mPa·s
308.15 K, 101 kPa, x1 = 0.4009	2.474 mPa·s
308.15 K, 101 kPa, x1 = 0.5018	1.929 mPa·s
308.15 K, 101 kPa, x1 = 0.6	1.694 mPa·s
308.15 K, 101 kPa, x1 = 0.6031	1.568 mPa·s
308.15 K, 101 kPa, x1 = 0.6505	1.424 mPa·s
308.15 K, 101 kPa, x1 = 0.7005	1.305 mPa·s
308.15 K, 101 kPa, x1 = 0.755	1.183 mPa·s
308.15 K, 101 kPa, x1 = 0.8048	1.085 mPa·s
308.15 K, 101 kPa, x1 = 0.8501	1.003 mPa·s
308.15 K, 101 kPa, x1 = 0.9049	0.922 mPa·s
318.15 K, 101 kPa, x1 = 0.025	0.784 mPa·s
318.15 K, 101 kPa, x1 = 0.065	1.106 mPa·s
318.15 K, 101 kPa, x1 = 0.1011	1.387 mPa·s
318.15 K, 101 kPa, x1 = 0.12	1.533 mPa·s
318.15 K, 101 kPa, x1 = 0.1495	1.718 mPa·s
318.15 K, 101 kPa, x1 = 0.2004	1.944 mPa·s
318.15 K, 101 kPa, x1 = 0.2512	2.05 mPa·s
318.15 K, 101 kPa, x1 = 0.3002	2.056 mPa·s
318.15 K, 101 kPa, x1 = 0.3501	1.986 mPa·s
318.15 K, 101 kPa, x1 = 0.4009	1.853 mPa·s
318.15 K, 101 kPa, x1 = 0.5018	1.553 mPa·s
318.15 K, 101 kPa, x1 = 0.6031	1.274 mPa·s
318.15 K, 101 kPa, x1 = 0.6505	1.178 mPa·s
318.15 K, 101 kPa, x1 = 0.7005	1.085 mPa·s
318.15 K, 101 kPa, x1 = 0.755	0.999 mPa·s
318.15 K, 101 kPa, x1 = 0.8048	0.932 mPa·s
318.15 K, 101 kPa, x1 = 0.8501	0.868 mPa·s
318.15 K, 101 kPa, x1 = 0.9049	0.803 mPa·s

CC(O)CN(C)C (stereo not drawn) + O
viscosity [mPa·s], 101 kPa
Conditions	293.15 K	303.15 K	308.15 K	313.15 K	318.15 K	323.15 K
x1 = 0.05	–	2.279	1.935	1.656	1.441	1.264
x1 = 0.0997	–	4.278	3.466	2.852	2.393	2.027
x1 = 0.1	7.22	4.74	–	–	–	2.15
x1 = 0.1507	–	5.905	4.691	3.78	3.11	2.592
x1 = 0.2001	9.89	6.37	–	4.08	–	2.82
x1 = 0.2021	–	6.775	5.334	4.263	3.485	2.881
x1 = 0.2501	–	–	5.478	4.372	3.562	2.935
x1 = 0.3003	9.87	6.34	–	4.01	–	2.8
x1 = 0.3013	–	6.703	5.288	4.227	3.449	2.847
x1 = 0.3507	–	6.218	4.934	–	3.249	2.692
x1 = 0.3998	8.61	5.52	–	3.49	–	2.47
x1 = 0.4013	–	5.613	4.485	3.628	2.989	–
x1 = 0.4578	–	4.875	3.936	3.213	2.674	–
x1 = 0.4999	6.61	4.37	–	2.8	–	2.01
x1 = 0.5049	–	4.294	3.499	2.882	2.426	–
x1 = 0.6	4.76	3.18	–	2.17	–	1.62
x1 = 0.6009	–	3.285	2.747	2.294	1.955	–
x1 = 0.7002	3.38	2.31	–	1.69	–	1.32
x1 = 0.7054	–	2.482	2.111	1.807	1.57	–
x1 = 0.7955	–	1.957	1.697	1.479	1.305	–
x1 = 0.8	2.47	1.83	–	1.4	–	1.11
x1 = 0.8905	–	1.561	1.375	1.218	1.092	–
x1 = 0.9001	1.94	1.5	–	1.17	–	0.95
x1 = 0.9564	–	1.347	1.201	1.077	0.973	–
